Test results reported in patent US4921849A, “Injection containing 3-benzoyloxy-1,3,5(10)-estratriene-17-[4-{p-(bis(2-chloroethyl)amino)phe nyl}butanoyloxy)acetate as an active ingredient” (priority 1987, dated 1990).

Assays:
estradiol receptor = conditions: cited from earlier work
cells = conditions: cited from earlier work
[1] = cited from earlier work
[2] = oral administration; cited from earlier work
Acute toxicity in rats = assay type: in vivo
Protocol: Concerning an acute toxicity (LD50) of the present derivative, even when rats were administered orally with the maximum administrable amount (6,000 mg/kg), no death case has been observed and when rats were injected intraperitoneally in a form of sesame oil solution, its LD50 has been over 3,000 mg/kg. Accordingly, the present derivative is a medicine extremely high in safety. In a mean while, LD50 of LIPIODOL® has been 7,000 mg/kg when it was administered intravenously to rabbits.

[3] = system: Walker 256 carcino sarcoma; assay: Life span of rats bearing Walker 256 carcino sarcoma after injection from the femoral artery; assay type: in vivo, female Wistar rats; conditions: for elongated life time (T/C=test/control): control = physiological saline; for mean survival days (MST): right femoral artery, 8th or 9th day after transplantation
Protocol: A predetermined amount (shown in Table 1) of 3-benzoyloxy-1,3,5(10)-estratriene-17β-[4-{p-(bis(2-chloroethyl)amino)phenyl}butanoyloxy]acetate or adriamycin was added to 6.5 g of LIPIODOL® and the mixture was stirred for 15 minutes at 25° C. to obtain a solution as the injection of each active ingredient. Each solution was put into a sterilized vials.
A walker 256 carcino sarcoma (solid) of about 3 mm square in size was transplanted subcutaneously to the left brachial part and the left femoral part of each of female Wistar rats (the age of 6 weeks and one group consisting of 5 animals) of respective group.
On the 8th or 9th day after the transplantation, each of the injections prepared in Example 1 was injected into each rat of respective testing group from the right femoral artery by a catheter and physiological saline solution or 6.5 g of LIPIODOL® was injected into each rat of the control group or the LIPIODOL group in the same manner as above.
After having observed the state of the test animals, the mean survival days (MST) and the elongated life time (T/C=test/control) were calculated.

Solubility in oils = assay type: physicochemical

Structure (SMILES) | affinity to the estradiol-receptor (estradiol receptor) | decomposition/conversion within cells (cells) | stability in cells (cells) | stability in vivo [1] | accumulation in cancer cells versus normal cells ([1]; in vivo) | adsorption rate in intestines [2] | death cases (acute toxicity) (Acute toxicity in rats; orally, maximum administrable amount 6,000 mg/kg) | LD50 (Acute toxicity in rats; rat, in vivo, ip, intraperitoneally, sesame oil solution) [mg/kg] | elongated life time (T/C=test/control) ([3]; 100 mg in 6.5 g of LIPIODOL) [%] | mean survival days (MST) ([3]; 100 mg in 6.5 g of LIPIODOL) [days] | solubility in ester of iodinated poppy oil fatty acid (Solubility in oils; ester of iodinated poppy oil fatty acid) | solubility in ordinary oils (Solubility in oils; ordinary oils) | elongated life time (T/C=test/control) ([3]; 10 mg in 6.5 g of LIPIODOL) [%] | mean survival days (MST) ([3]; 10 mg in 6.5 g of LIPIODOL) [days]
C[C@]12CC[C@@H]3c4ccc(O)cc4CC[C@H]3[C@@H]1CC[C@@H]2OC(=O)COC(=O)CCCc1ccc(N(CCCl)CCCl)cc1 [KM-2202, 3-hydroxy-1,3,5(10)-estratriene-17-[4-{p-(bis(2-chloroethyl)amino)phenyl}butanoyloxy]-acetate] | has an affinity to the estradiol receptor | decomposed slowly into estradiol and chlorambucil within cells | relatively unstable in cells |  |  |  |  |  |  |  |  |  |  | 
C[C@]12CC[C@@H]3c4ccc(OC(=O)c5ccccc5)cc4CC[C@H]3[C@@H]1CC[C@@H]2OC(=O)COC(=O)CCCc1ccc(N(CCCl)CCCl)cc1 [present derivative, 3-benzoyloxy-1,3,5(10)-estratriene-17-[4-{p-(bis(2-chloroethyl)amino)phenyl}-butanoyloxy]acetate] | scarcely any function as an alkylating agent and any affinity to the estradiol-receptor | hydrolyzed by an enzyme |  | relatively stable in vivo | accumulates in larger amount in cancer cells than in normal cells | low adsorption rate | no death case | > 3000 | 234.3 | 41.0 | can be uniformly dissolved in the ester | does not completely dissolve in ordinary oils |  | 
COc1cccc2c1C(=O)c1c(O)c3c(c(O)c1C2=O)C[C@@](O)(C(=O)CO)C[C@@H]3O[C@H]1C[C@H](N)[C@H](O)[C@H](C)O1 [Adriamycin] |  |  |  |  |  |  |  |  | < 5.7 | < 1 |  |  | 140.7 | 24.5
